According to patent US11744830B2, “Ameliorative agent for cytokine release syndrome and so on” (TORII PHARMACEUTICAL CO., LTD., priority 2018, dated 2023):

Columns and labels:
Assay type in all cases: cell-based, human
[1] = system: OPN production from CD14^+ cells; assay: LPS stimulation-induced OPN production in CD14^+ cells; conditions: LPS
Description: (§1) Cryopreserved PBMCs were quickly thawed in a 37° C. thermostat and added to a tube containing medium. After centrifugation (at room temperature at 300 g for 10 minutes) to remove the supernatant, the cells were suspended again in the medium, followed by counting the number of viable cells. The cell suspension was centrifuged (at room temperature at 300 g for 10 minutes) to remove the supernatant, followed by addition of MACS Buffer to suspend the cells, to which Human CD14 MicroBeads were further added. After being allowed to stand on ice for 15 minutes, the cell suspension was diluted with MACS Buffer and centrifuged (at room temperature at 300 g for 10 minutes) to remove the supernatant. MACS Buffer was added to the tube, and the cells were suspended and then applied to a separatory column to separate CD14^+ cells. The CD14^+ cell fraction was diluted with the medium and then centrifuged (at room temperature at 300 g for 10 minutes). The supernatant was removed and the cells were suspended in the medium (1 mL), followed by counting the number of viable cells. The cell suspension was adjusted with the medium to 2.4×10^5 or 3×10^5 cells/mL and seeded in a 96-well plate (2.4×10^4 cells/well), which was then allowed to stand in a CO2 incubator for 1 to 2 hours.
The collected culture supernatants were quantified for OPN using Human OPN DuoSet ELISA.

[2] = system: IL-8 production; assay: CRS toxicity evaluation system using CAR-T cells: IL-8; conditions: CRS toxicity evaluation system using CAR-T cells
Description: (§2) The supernatants were collected at 72 hours after the initiation of culture, and various cytokines in each supernatant were measured by FACS multiplex assay.

[3] = system: TNF-α production; assay: CRS toxicity evaluation system using CAR-T cells: TNF-α; conditions: CRS toxicity evaluation system using CAR-T cells
Description: as §2

[4] = system: MCP-1 production; assay: CRS toxicity evaluation system using CAR-T cells: MCP-1; conditions: CRS toxicity evaluation system using CAR-T cells
Description: as §2

[5] = system: IL-1β production; assay: CRS toxicity evaluation system using CAR-T cells: IL-1β; conditions: CRS toxicity evaluation system using CAR-T cells
Description: as §2

[6] = system: VEGF production from macrophages; assay: LPS stimulation-induced VEGF production in macrophages; conditions: Macrophages, LPS
Description: CD14^+ cells were cultured in 20 ng/mL M-CSF-containing RPMI medium at 37° C. for 5 days to induce differentiation into macrophages (during which the medium was replaced once every two days with fresh 20 ng/mL M-CSF-containing RPMI medium). […] The macrophages were then stimulated with LPS (final concentration: 100 ng/mL) or RPMI medium alone at 37° C. for 3 days, followed by collecting the culture supernatants. The collected culture supernatants were quantified for VEGF using Human VEGF DuoSet ELISA.

[7] = system: IL-18 production from LPS-pretreated CD14^+ cells; assay: ATP stimulation-induced IL-18 production from LPS-pretreated CD14^+ cells; conditions: LPS-pretreated CD14^+ cells, ATP
Description: Cryopreserved PBMCs were quickly thawed in a 37° C. thermostat and added to a tube containing medium. After centrifugation (at room temperature at 300 g for 10 minutes) to remove the supernatant, the cells were suspended again in the medium, followed by counting the number of viable cells. The cell suspension was centrifuged (at room temperature at 300 g for 10 minutes) to remove the supernatant, followed by addition of MACS Buffer to suspend the cells, to which Human CD14 MicroBeads were further added. After being allowed to stand on ice for 15 minutes, the cell suspension was diluted with MACS Buffer and centrifuged (at room temperature at 300 g for 10 minutes) to remove the supernatant.
MACS Buffer was added to the tube, and the cells were suspended and then applied to a separatory column to separate CD14^+ cells. The CD14^+ cell fraction was diluted with the medium and then centrifuged (at room temperature at 300 g for 10 minutes). The supernatant was removed and the cells were suspended in the medium (1 mL), followed by counting the number of viable cells. The cell suspension adjusted with the medium to 2×10^6 cells/mL was seeded in a 96-well plate (1×10^5 cells/well) and allowed to stand in a CO2 incubator for 1 to 2 hours. […] The cells were then stimulated with LPS (final concentration: 500 ng/mL) for 6 hours at 37° C. and an ATP solution (final concentration: 5 mM) was added thereto, and the 96-well plate was further allowed to stand in a CO2 incubator for 2 hours to collect the culture supernatants.
The collected culture supernatants were quantified for IL-18 using Human IL-18 DuoSet ELISA.

[8] = system: IL-1β production in CD14^+ cells; assay: LPS stimulation-induced IL-1β production in CD14^+ cells; conditions: LPS
Description: as §1
The culture supernatants collected in 1.2.10 were quantified for IL-1β using Human IL-1β DuoSet ELISA.

Tocilizumab: interleukin (IL)-6R antibody (tocilizumab) approved at the same time as CAR-T cell therapy
no suppressive effect: suppressive effect on OPN production [1] | suppressive effect on IL-8 production [2] | suppressive effect on TNF-α [3] | suppressive effect on MCP-1 production [4] | suppressive effect on IL-1β [5] | effect on VEGF production from macrophages [6] | suppressive effect on IL-18 production [7] | suppressive effect on IL-1β production [8]
